Measurements taken from ChEMBL document CHEMBL5325467, “Discovery of novel hypoxia-activated, nitroimidazole constructed multi-target kinase inhibitors on the basis of AZD9291 for the treatment of human lung cancer” (Bioorg Med Chem, 2023).
pIC50: −log10 of the molar value.

Columns and labels:
[1] = target: Cyclin-dependent kinase 4/cyclin D1 (Homo sapiens) (UniProt P11802+P24385); test: Inhibition of CDK4/CyclinD1 (unknown origin) at 1 uM relative to control; format: protein-complex assay
[2] = target: Tyrosine-protein kinase ITK/TSK (Homo sapiens) (UniProt Q08881); test: Inhibition of ITK (unknown origin) at 1 uM relative to control
[3] = target: Vascular endothelial growth factor receptor 2 (Homo sapiens) (UniProt P35968); test: Inhibition of KDR (unknown origin) at 1 uM relative to control
[4] = target: T1, Proto-oncogene tyrosine-protein kinase ROS (Homo sapiens, UniProt P08922); test: Inhibition of ROS1 (unknown origin) at 1 uM relative to control
[5] = target: Focal adhesion kinase 1 (Homo sapiens) (UniProt Q05397); test: Inhibition of FAK (unknown origin) at 1 uM relative to control
[6] = target: Hepatocyte growth factor receptor (Homo sapiens) (UniProt P08581); test: Inhibition of MET (unknown origin) at 1 uM relative to control
[7] = target: T2, Platelet-derived growth factor receptor alpha (Homo sapiens, UniProt P16234); test: Inhibition of PDGFRalpha (unknown origin)
T2 sequence (P16234 whole entry): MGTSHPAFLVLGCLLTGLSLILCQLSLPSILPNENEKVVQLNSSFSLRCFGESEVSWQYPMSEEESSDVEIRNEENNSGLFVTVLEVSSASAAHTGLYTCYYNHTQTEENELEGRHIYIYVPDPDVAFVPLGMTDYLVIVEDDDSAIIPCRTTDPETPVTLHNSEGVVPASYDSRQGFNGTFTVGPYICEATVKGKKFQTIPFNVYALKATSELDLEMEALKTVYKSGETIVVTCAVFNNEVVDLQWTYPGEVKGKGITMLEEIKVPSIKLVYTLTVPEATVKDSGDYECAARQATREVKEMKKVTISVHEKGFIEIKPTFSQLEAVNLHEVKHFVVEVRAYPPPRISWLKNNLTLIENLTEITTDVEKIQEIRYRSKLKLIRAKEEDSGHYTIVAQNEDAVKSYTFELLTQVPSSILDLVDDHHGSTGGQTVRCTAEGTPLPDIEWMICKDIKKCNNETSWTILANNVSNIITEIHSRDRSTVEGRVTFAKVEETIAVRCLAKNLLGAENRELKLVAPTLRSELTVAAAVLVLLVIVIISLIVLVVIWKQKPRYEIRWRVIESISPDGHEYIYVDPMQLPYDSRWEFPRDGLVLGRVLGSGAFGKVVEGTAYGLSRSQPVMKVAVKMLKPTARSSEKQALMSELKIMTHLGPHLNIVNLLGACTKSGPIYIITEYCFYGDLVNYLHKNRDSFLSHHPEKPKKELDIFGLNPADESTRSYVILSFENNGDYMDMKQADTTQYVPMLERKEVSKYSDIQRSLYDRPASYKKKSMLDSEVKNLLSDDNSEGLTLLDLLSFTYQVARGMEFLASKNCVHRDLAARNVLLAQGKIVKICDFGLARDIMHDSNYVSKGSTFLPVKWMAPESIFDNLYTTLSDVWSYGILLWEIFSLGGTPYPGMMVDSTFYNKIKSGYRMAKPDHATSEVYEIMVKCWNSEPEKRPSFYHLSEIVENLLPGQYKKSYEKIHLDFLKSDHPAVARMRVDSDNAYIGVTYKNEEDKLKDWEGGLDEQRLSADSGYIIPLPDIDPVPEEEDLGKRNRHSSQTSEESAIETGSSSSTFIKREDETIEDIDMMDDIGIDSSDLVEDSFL

[8] = target: T1, Proto-oncogene tyrosine-protein kinase ROS; test: Inhibition of ROS1 (unknown origin)
[9] = target: Mast/stem cell growth factor receptor Kit (Homo sapiens) (UniProt P10721); test: Inhibition of KIT (unknown origin) at 1 uM relative to control
[10] = target: Epidermal growth factor receptor (Homo sapiens, UniProt P00533, L858R/T790M); test: Inhibition of EGFR L858R/T790M mutant (unknown origin) by mobility shift assay
[11] = Reductive activation in PBS at pH 7.4 assessed as 2-amino-3-[2-amino-5-[amino(carboxy)methyl]sulfanyl-1-[2-[2-[2-methoxy-5-[[4-(1-methylindol-3-yl)pyrimidin-2-yl]amino]phenoxy]ethoxy]ethyl]imidazol-4-yl]sulfanyl-propanoic acid metabolite formation at 1 uM incubated for 30 mins in presence of cysteine, NADPH and nitroreductase under N2 condition by MS/MS analysis; format: ADME; conditions: buffer, pH 7.4, 0.5 h
[12] = target: T2, Platelet-derived growth factor receptor alpha; test: Inhibition of PDGFRalpha (unknown origin) at 1 uM relative to control
[13] = target: Tyrosine-protein kinase JAK3 (Homo sapiens) (UniProt P52333); test: Inhibition of JAK3 (unknown origin) at 1 uM relative to control
[14] = target: Receptor-type tyrosine-protein kinase FLT3 (Homo sapiens, UniProt P36888); test: Inhibition of FLT3 (unknown origin)
[15] = target: Tyrosine-protein kinase receptor UFO (Homo sapiens) (UniProt P30530); test: Inhibition of AXL (unknown origin) at 1 uM relative to control
[16] = target: T3, Vascular endothelial growth factor receptor 3 (Homo sapiens, UniProt P35916); test: Inhibition of FLT4 (unknown origin)
T3 sequence (P35916 whole entry): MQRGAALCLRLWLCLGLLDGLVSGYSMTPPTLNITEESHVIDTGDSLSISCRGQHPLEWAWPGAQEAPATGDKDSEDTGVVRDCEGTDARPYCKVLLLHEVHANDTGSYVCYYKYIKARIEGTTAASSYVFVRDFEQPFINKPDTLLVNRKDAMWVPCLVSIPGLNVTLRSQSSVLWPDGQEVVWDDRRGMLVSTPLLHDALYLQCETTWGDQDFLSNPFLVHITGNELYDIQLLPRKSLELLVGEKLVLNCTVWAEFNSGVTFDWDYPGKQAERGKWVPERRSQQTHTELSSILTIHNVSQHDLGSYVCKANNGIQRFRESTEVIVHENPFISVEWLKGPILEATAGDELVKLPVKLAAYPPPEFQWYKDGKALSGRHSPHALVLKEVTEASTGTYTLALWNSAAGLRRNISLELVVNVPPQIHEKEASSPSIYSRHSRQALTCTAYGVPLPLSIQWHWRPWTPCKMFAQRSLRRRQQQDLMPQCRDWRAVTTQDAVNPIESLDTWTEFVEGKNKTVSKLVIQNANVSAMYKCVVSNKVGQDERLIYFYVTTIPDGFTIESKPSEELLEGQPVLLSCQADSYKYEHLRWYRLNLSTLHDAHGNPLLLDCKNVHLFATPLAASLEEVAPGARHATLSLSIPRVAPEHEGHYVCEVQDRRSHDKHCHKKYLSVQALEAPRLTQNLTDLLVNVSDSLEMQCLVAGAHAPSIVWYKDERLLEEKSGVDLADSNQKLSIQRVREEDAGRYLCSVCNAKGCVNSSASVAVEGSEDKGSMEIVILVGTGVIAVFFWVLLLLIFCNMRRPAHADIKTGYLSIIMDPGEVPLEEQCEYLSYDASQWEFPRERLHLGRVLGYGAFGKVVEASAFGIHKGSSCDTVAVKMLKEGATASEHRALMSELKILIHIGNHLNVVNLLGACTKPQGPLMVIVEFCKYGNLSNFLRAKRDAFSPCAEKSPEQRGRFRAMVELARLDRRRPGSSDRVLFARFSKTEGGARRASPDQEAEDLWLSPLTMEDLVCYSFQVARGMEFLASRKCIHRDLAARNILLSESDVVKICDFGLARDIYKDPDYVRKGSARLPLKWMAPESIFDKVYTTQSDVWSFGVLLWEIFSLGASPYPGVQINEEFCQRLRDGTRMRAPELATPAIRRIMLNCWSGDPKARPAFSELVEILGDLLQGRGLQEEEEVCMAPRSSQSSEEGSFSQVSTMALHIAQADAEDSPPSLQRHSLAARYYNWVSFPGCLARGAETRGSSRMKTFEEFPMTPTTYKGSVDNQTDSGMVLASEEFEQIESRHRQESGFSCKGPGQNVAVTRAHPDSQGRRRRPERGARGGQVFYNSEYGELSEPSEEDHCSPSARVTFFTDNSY

[17] = Reductive activation in PBS at pH 7.4 assessed as A14-1 metabolite formation at 1 uM incubated for 30 mins in presence of cysteine, NADPH and nitroreductase under N2 condition by MS/MS analysis; format: ADME; conditions: buffer, pH 7.4, 0.5 h
[18] = Ratio of IC50 for antiproliferative activity against human HCC827 cells harboring EGFR del19 mutant under normoxia condition to IC50 for antiproliferative activity against human HCC827 cells harboring EGFR del19 mutant under hypoxia condition; format: functional
[19] = target: T4, Tyrosine-protein kinase JAK2 (Homo sapiens, UniProt O60674); test: Inhibition of JAK2 (unknown origin) at 1 uM relative to control
T4 sequence (O60674 whole entry): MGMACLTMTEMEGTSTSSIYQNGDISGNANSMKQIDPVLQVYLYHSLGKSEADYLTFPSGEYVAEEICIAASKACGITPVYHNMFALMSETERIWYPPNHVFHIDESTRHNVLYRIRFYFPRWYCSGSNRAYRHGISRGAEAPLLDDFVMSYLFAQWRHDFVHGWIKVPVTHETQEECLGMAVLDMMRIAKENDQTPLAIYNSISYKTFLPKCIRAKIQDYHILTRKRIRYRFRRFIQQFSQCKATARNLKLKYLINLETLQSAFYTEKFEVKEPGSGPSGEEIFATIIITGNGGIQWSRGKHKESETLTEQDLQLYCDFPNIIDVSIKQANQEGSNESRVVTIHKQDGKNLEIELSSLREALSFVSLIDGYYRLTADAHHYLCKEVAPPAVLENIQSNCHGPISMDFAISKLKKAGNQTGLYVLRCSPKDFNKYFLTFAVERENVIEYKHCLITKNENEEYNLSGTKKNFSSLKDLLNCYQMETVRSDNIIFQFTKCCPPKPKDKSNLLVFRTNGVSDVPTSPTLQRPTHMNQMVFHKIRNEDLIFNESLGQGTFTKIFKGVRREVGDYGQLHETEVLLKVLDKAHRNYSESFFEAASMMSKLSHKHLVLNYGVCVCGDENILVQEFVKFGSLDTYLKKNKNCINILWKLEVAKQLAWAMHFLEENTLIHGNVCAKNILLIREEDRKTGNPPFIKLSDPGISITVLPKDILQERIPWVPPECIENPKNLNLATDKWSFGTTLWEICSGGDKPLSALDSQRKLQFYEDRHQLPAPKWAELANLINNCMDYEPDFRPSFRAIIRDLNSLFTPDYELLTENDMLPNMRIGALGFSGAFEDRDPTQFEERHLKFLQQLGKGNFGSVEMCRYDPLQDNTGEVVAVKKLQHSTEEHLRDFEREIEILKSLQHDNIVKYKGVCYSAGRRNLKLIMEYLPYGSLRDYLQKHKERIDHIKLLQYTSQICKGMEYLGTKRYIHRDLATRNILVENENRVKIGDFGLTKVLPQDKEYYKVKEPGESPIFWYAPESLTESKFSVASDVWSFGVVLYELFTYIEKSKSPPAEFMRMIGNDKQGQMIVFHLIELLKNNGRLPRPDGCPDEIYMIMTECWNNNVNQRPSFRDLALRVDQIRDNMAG

[20] = target: T4, Tyrosine-protein kinase JAK2; test: Inhibition of JAK2 (unknown origin)
[21] = target: T5, Epidermal growth factor receptor (Homo sapiens, UniProt P00533); test: Inhibition of wild type EGFR (unknown origin) by mobility shift assay
T5 sequence (P00533 whole entry): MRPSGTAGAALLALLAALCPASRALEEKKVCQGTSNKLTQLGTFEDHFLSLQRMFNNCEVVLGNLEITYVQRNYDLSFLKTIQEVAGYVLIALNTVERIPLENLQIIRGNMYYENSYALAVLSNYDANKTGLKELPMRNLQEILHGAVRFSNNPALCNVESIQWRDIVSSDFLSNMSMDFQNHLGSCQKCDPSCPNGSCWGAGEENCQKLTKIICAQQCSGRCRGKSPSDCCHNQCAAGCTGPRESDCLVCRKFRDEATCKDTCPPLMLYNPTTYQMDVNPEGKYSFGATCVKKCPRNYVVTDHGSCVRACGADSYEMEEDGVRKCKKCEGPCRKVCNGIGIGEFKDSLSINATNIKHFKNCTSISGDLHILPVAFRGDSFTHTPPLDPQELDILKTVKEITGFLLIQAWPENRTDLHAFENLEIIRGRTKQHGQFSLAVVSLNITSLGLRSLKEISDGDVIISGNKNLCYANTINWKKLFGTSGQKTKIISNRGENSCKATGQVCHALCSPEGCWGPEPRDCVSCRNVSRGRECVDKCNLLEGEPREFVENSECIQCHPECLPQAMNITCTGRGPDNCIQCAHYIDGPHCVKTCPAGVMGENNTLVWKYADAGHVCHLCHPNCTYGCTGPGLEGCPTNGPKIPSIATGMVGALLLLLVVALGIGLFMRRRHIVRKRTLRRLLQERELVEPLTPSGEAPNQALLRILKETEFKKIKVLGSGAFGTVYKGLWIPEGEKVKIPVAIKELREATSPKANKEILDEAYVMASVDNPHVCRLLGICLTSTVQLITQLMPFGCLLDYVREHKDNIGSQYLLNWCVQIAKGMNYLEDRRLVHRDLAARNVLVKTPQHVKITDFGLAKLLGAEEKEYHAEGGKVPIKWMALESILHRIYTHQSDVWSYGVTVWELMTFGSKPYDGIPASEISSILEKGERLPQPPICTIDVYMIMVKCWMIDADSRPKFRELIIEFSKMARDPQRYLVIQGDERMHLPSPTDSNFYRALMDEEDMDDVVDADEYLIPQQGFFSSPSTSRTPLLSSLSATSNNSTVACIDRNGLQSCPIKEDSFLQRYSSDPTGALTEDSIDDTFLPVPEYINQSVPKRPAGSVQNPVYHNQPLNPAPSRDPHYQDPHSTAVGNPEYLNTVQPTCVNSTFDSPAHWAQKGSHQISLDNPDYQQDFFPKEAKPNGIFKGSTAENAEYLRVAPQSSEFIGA

[22] = target: T5, Epidermal growth factor receptor; test: Inhibition of EGFR (unknown origin) at 1 uM relative to control
[23] = target: MAP kinase-activated protein kinase 2 (Homo sapiens) (UniProt P49137); test: Inhibition of MAPKAPK2 (unknown origin) at 1 uM relative to control
[24] = Reductive activation in PBS at pH 7.4 assessed as A14-1 metabolite formation at 1 uM incubated for 30 mins in presence of cysteine, NADPH and nitroreductase under hypoxia condition by MS/MS analysis; format: ADME; conditions: buffer, pH 7.4, 0.5 h
NCI-H1975 = test: Antiproliferative activity against human NCI-H1975 cells harboring EGFR L858R/T790M mutant assessed as inhibition of cell growth incubated for 72 hrs under normoxia condition by SRB assay; format: functional, cell-based; conditions: NCI-H1975, 72 h
[25] = Reductive activation in PBS at pH 7.4 assessed as 2-amino-3-[2-amino-5-[amino(carboxy)methyl]sulfanyl-1-[2-[2-[2-methoxy-5-[[4-(1-methylindol-3-yl)pyrimidin-2-yl]amino]phenoxy]ethoxy]ethyl]imidazol-4-yl]sulfanyl-propanoic acid metabolite formation at 1 uM incubated for 30 mins in presence of cysteine, NADPH and nitroreductase under normoxia condition by MS/MS analysis; format: ADME; conditions: buffer, pH 7.4, 0.5 h
[26] = tested on: Serine/threonine-protein kinase B-raf (Homo sapiens), P15056 [V600E]; test: Inhibition of BRAF V600E mutant (unknown origin) at 1 uM relative to control
[27] = Reductive activation in PBS at pH 7.4 assessed as hydroxylamine intermediate formation at 1 uM incubated for 30 mins in presence of cysteine, NADPH and nitroreductase under hypoxia condition by MS/MS analysis; conditions: buffer, pH 7.4, 0.5 h
[28] = target: Receptor-type tyrosine-protein kinase FLT3 (Homo sapiens) (UniProt P36888); test: Inhibition of FLT3 (unknown origin) at 1 uM relative to control
[29] = target: Receptor tyrosine-protein kinase erbB-2 (Homo sapiens) (UniProt P04626); test: Inhibition of HER2 (unknown origin) at 1 uM relative to control
[30] = tested on: Epidermal growth factor receptor (Homo sapiens), P00533 [L858R,T790M,C797S]; test: Inhibition of EGFR L858R/T790M/C797S triple mutant (unknown origin) at 1 uM relative to control
[31] = target: Mitogen-activated protein kinase 10 (Homo sapiens) (UniProt P53779); test: Inhibition of JNK3 (unknown origin) at 1 uM relative to control
Homo sapiens = species: Homo sapiens; test: Inhibition of ABL (unknown origin) at 1 uM relative to control
HCC827 = test: Antiproliferative activity against human HCC827 cells harboring EGFR del19 mutant assessed as inhibition of cell growth incubated for 72 hrs under normoxia condition by SRB assay; format: functional, cell-based; conditions: HCC827, 72 h
[32] = target: RAC-alpha serine/threonine-protein kinase (Homo sapiens) (UniProt P31749); test: Inhibition of AKT1 (unknown origin) at 1 uM relative to control
[33] = target: Proto-oncogene tyrosine-protein kinase receptor Ret (Homo sapiens) (UniProt P07949); test: Inhibition of RET (unknown origin) at 1 uM relative to control
[34] = target: T3, Vascular endothelial growth factor receptor 3; test: Inhibition of FLT4 (unknown origin) at 1 uM relative to control
[35] = target: Tyrosine-protein kinase BTK (Homo sapiens) (UniProt Q06187); test: Inhibition of BTK (unknown origin) at 1 uM relative to control

COc1ccc(Nc2nccc(-c3cn(C)c4ccccc34)n2)cc1OCCOCCn1ccnc1[N+](=O)[O-]
inhibition [1]: 8.02%
inhibition [2]: 27.9%
inhibition [3]: 50%
inhibition [4]: 84.7%
inhibition [5]: 9%
inhibition [6]: 26.6%
pIC50 [7]: 7.37
pIC50 [8]: 6.97
inhibition [9]: 38.1%
pIC50 [10]: 6.75
Drug metabolism [11]: Metabolite_Detected
inhibition [12]: 88.2%
inhibition [13]: 43.2%
pIC50 [14]: 6.97
inhibition [15]: 44.3%
pIC50 [16]: 6.64
Drug metabolism [17]: Metabolite_Detected
Ratio IC50 [18]: 4.75
inhibition [19]: 79.2%
pIC50 [20]: 7.51
pIC50 [21]: 5.80
inhibition [22]: 34.8%
inhibition [23]: 17.4%
Drug metabolism [24]: Metabolite_Detected
pIC50 (NCI-H1975): 7.58
Drug metabolism [25]: Metabolite_Notdetected
inhibition [26]: 65.4%
Drug metabolism [27]: Metabolite_Detected
inhibition [28]: 90.5%
inhibition [29]: 11.8%
inhibition [30]: 50.9%
inhibition [31]: 62.7%
inhibition (Homo sapiens): 23.9%
pIC50 (HCC827): 7.60
inhibition [32]: 11.5%
inhibition [33]: -0.41%
inhibition [34]: 85.7%
inhibition [35]: 27.4%
